Values of other authors, collected in PMC6696021, “Combined Ensemble Docking and Machine Learning in Identification of Therapeutic Agents with Potential Inhibitory Effect on Human CES1” (Molecules, 2019).

Molecular target: CES1
Set-up: method as in earlier work
Settings: Table S1, bioactivity from ChEMBL database; read-out: Ki_Nanomolar; cited from earlier work

Row | Compound | Ki [nM]
1 | O=C1C=Cc2ccccc2C1=O [1-2-NAPHTHOQUINONE] | 930
2 | O=C1C(=O)c2ccccc2-c2ccccc21 [9-10-PHENANTHRENEQUINONE] | 2.5
3 | O=C1C(=O)c2cccc3cccc1c23 [ACENAPHTHOQUINONE] | 31
4 | O=C(c1ccccc1)C(O)c1ccccc1 (stereo not drawn) [BENZOIN] | 30400
5 | CCCCCCCCCCC(=O)C(F)(F)F [CHEMBL86668] | 76.8
6 | CCCCCCCCSCC(=O)C(F)(F)F [CHEMBL89506] | 97.4
7 | O=C1C(=O)N(Cc2ccccc2)c2ccccc21 [CHEMBL115581] | 1700
8 | O=C1Nc2ccc(Br)cc2C1=O [CHEMBL115897] | 31700
9 | O=C(C(=O)c1ccc2ccccc2c1)c1ccc2ccccc2c1 [CHEMBL189162] | 256
10 | O=C(c1cccs1)C(O)c1cccs1 (stereo not drawn) [CHEMBL190660] | 3100
11 | O=C(C(=O)c1cc(Br)cs1)c1cc(Br)cs1 [CHEMBL190672] | 20.8
12 | COc1ccc(C(=O)C(=O)c2ccc(OC)cc2)cc1 [CHEMBL191513] | 3400
13 | O=C(C(=O)c1cccc([N+](=O)[O-])c1)c1cccc([N+](=O)[O-])c1 [CHEMBL191796] | 18100
14 | COc1ccc(C(=O)C(=O)c2ccccc2Cl)cc1OC [CHEMBL191822] | 3310
15 | Cc1ccc(C(=O)C(=O)c2ccccc2)cc1[N+](=O)[O-] [CHEMBL191847] | 223
16 | O=C(C(=O)c1ccc(Cl)cc1)c1ccc(Cl)cc1 [CHEMBL192139] | 25100
17 | O=C(C(=O)c1ccc(Cl)cc1)c1ccccc1 [CHEMBL192180] | 37
18 | O=C(C(=O)c1ccc(CBr)cc1)c1ccccc1 [CHEMBL192241] | 77.6
19 | Cc1ccc(C(=O)C(=O)c2ccc(Cl)cc2)cc1 [CHEMBL192252] | 159
20 | CC(=O)C(=O)c1ccccc1 [CHEMBL192258] | 5270
21 | O=C(C(=O)c1ccc(F)cc1)c1ccc(F)cc1 [CHEMBL192410] | 230
22 | COc1ccc(C(=O)C(=O)c2ccccc2)cc1 [CHEMBL192474] | 174

Row | Compound | Ki [nM]
23 | O=C(C(=O)c1ccc([N+](=O)[O-])cc1)c1ccccc1 [CHEMBL192589] | 214
24 | O=C(C(=O)c1ccc(Br)s1)c1ccc(Br)s1 [CHEMBL192592] | 142
25 | Cc1ccc(C(=O)C(=O)c2ccc(C)cc2)cc1 [CHEMBL192625] | 535
26 | Cc1ccc(C(=O)C(=O)c2ccccc2)cc1C [CHEMBL193140] | 79.2
27 | O=C(C(=O)c1cc(F)c(F)c(F)c1)c1cc(F)c(F)c(F)c1 [CHEMBL193180] | 405
28 | O=C(C(=O)c1ccc(Br)cc1)c1ccc(Br)cc1 [CHEMBL193228] | 66700
29 | O=C(C(=O)c1cc(F)cc(F)c1)c1cc(F)cc(F)c1 [CHEMBL193229] | 79.7
30 | O=C(C(=O)c1c(Cl)c(Cl)c(Cl)c(Cl)c1Cl)c1c(F)c(F)c(F)c(F)c1F [CHEMBL195713] | 1690
31 | COc1cc(NCN2C(=O)C(=O)c3ccccc32)cc(OC)c1OC [CHEMBL221362] | 19500
32 | O=C1Nc2c(Cl)cccc2C1=O [CHEMBL222190] | 11400
33 | O=C1Nc2c(ccc(Cl)c2Cl)C1=O [CHEMBL222292] | 9400
34 | CCCCCCCCCCCCN1C(=O)C(=O)c2ccccc21 [CHEMBL222644] | 10
35 | O=C1C(=O)N(CNc2ccc(Cl)cc2)c2ccccc21 [CHEMBL222712] | 610
36 | O=C1C(=O)N(Cc2ccc(Cc3ccc(CN4C(=O)C(=O)c5ccccc54)cc3)cc2)c2ccccc21 [CHEMBL222752] | 8
37 | Cc1ccc(NCN2C(=O)C(=O)c3ccccc32)cc1 [CHEMBL222851] | 2650
38 | O=C1Nc2cc(Cl)c(Cl)cc2C1=O [CHEMBL222988] | 21000
39 | O=C1C(=O)N(CCBr)c2ccccc21 [CHEMBL223000] | 290
40 | CC(=O)N1C(=O)C(=O)c2ccccc21 [CHEMBL223001] | 36000
41 | O=C1Nc2c(Cl)ccc(Cl)c2C1=O [CHEMBL223039] | 590
42 | C=C(C)CN1C(=O)C(=O)c2cc(Br)ccc21 [CHEMBL225169] | 66
43 | O=C(C(=O)C1CCCCC1)C1CCCCC1 [CHEMBL235287] | 38.5
44 | O=C1Cc2ccccc2C1=O [CHEMBL235288] | 5240

Row | Compound | Ki [nM]
45 | O=C1C(=O)c2ccc([N+](=O)[O-])c3c([N+](=O)[O-])ccc1c23 [CHEMBL235289] | 570
46 | O=C1C(=O)c2cccc3c2N(CCC3)C1=O [CHEMBL235290] | 5380
47 | O=C1C(=O)c2c3ccccc3cc3cccc1c23 [CHEMBL235503] | 1.5
48 | O=C1C(=O)c2cccnc2-c2ncccc21 [CHEMBL235504] | 5400
49 | O=C1C(=O)c2ccccc2CCc2ccccc21 [CHEMBL235931] | 2980
50 | O=C(C(=O)c1ccc([N+](=O)[O-])cc1)c1ccc([N+](=O)[O-])cc1 [CHEMBL236340] | 9800
51 | O=S(=O)(Nc1ccc(NS(=O)(=O)c2ccc(Cl)cc2)cc1)c1ccc(Cl)cc1 [CHEMBL254426] | 13700
52 | CCCCCCCCCCSCC(=O)C(F)(F)F [CHEMBL270374] | 66.4
53 | CCCCCCCCCCCCSCC(=O)C(F)(F)F [CHEMBL270375] | 39.1
54 | CCCCC(=O)C(C)=O [CHEMBL364588] | 16900
55 | O=C1C(=O)C(Cl)=C(Cl)C(Cl)=C1Cl [CHEMBL364729] | 5440
56 | COC(OC)(C(=O)c1ccccc1)c1ccccc1 [CHEMBL364734] | 15300
57 | CC(C)(C)C1=CC(=O)C(=O)C(C(C)(C)C)=C1 [CHEMBL365161] | 88.6
58 | O=C(C(=O)c1ccccc1Cl)c1ccccc1Cl [CHEMBL365392] | 1650
59 | O=C(C(=O)c1cccs1)c1cccs1 [CHEMBL365445] | 433
60 | O=C(O)c1ccc(C(=O)C(=O)c2ccccc2)cc1 [CHEMBL370059] | 524
61 | O=C(C(=O)c1ccco1)c1ccco1 [CHEMBL371181] | 3610
62 | Cc1ccc(C(=O)C(=O)c2ccccc2)cc1 [CHEMBL371858] | 125
63 | O=C(C(=O)c1ccsc1)c1ccsc1 [CHEMBL372716] | 1050
64 | O=C(C(=O)c1ccccn1)c1ccccn1 [CHEMBL373345] | 245
65 | O=C1C(=O)N(CNc2ccccc2Br)c2ccccc21 [CHEMBL374758] | 36000
66 | O=C1C(=O)N(Cc2ccc(Cl)c(Cl)c2)c2ccccc21 [CHEMBL375126] | 31

Row | Compound | Ki [nM]
67 | O=C1C(=O)N(CCI)c2ccccc21 [CHEMBL376518] | 130
68 | O=C1C(=O)N(CNc2ccc(Br)cc2)c2ccccc21 [CHEMBL385132] | 580
69 | O=C1Nc2cc(Cl)cc(Cl)c2C1=O [CHEMBL385800] | 890
70 | O=C1C(=O)N2CCCc3cccc1c32 [CHEMBL395654] | 1540
71 | O=C1C(=O)c2sccc2-c2ccsc21 [CHEMBL398109] | 150
72 | CCCCSCC(=O)C(F)(F)F [CHEMBL402615] | 400
73 | COc1cccc(C(=O)C(=O)c2cccc(OC)c2)c1 [CHEMBL435109] | 1540
74 | CCCCCCSCC(=O)C(F)(F)F [CHEMBL440542] | 168
75 | CCCCCCOCC(O)(O)C(F)(F)F [CHEMBL449475] | 1660
76 | CCCCCCS(=O)(=O)CC(O)(O)C(F)(F)F [CHEMBL449775] | 4890
77 | CCCCCCCC[S+]([O-])CC(O)(O)C(F)(F)F (stereo not drawn) [CHEMBL460806] | 7400
78 | CCCCCCCCS(=O)(=O)CC(O)(O)C(F)(F)F [CHEMBL460807] | 757
79 | CCCCCC[S+]([O-])CC(O)(O)C(F)(F)F (stereo not drawn) [CHEMBL460808] | 39700
80 | O=C(CSCCc1ccccc1)C(F)(F)F [CHEMBL460809] | 63.3
81 | CCCCCCCCCCCC[S+]([O-])CC(O)(O)C(F)(F)F (stereo not drawn) [CHEMBL463556] | 953
82 | CCCCCCCCCC[S+]([O-])CC(O)(O)C(F)(F)F (stereo not drawn) [CHEMBL464002] | 2620
83 | CCCCCCCCCCCCS(=O)(=O)CC(O)(O)C(F)(F)F [CHEMBL467450] | 371
84 | CCCCCCCCCCS(=O)(=O)CC(O)(O)C(F)(F)F [CHEMBL467451] | 397
85 | OC(O)(CSCCc1ccccc1)C(F)(F)F [CHEMBL510996] | 6900
86 | O=C(Nc1cccc(C(=O)C(=O)c2ccccn2)c1)c1ccc(C(F)(F)F)cc1 [CHEMBL1629724] | 437
87 | O=C(C(=O)c1ccccn1)c1cccc(NC(=O)c2ccc(Cl)cc2Cl)c1 [CHEMBL1630808] | 279
88 | Cc1ccc(C(=O)Nc2cccc(C(=O)C(=O)c3ccccn3)c2)cc1 [CHEMBL1630810] | 1030

Row | Compound | Ki [nM]
89 | O=C(Nc1cccc(C(=O)C(=O)c2ccccn2)c1)c1ccc(F)c(F)c1 [CHEMBL1630811] | 1240
90 | O=C(Nc1cccc(C(=O)C(=O)c2ccccn2)c1)c1cccc(Cl)c1 [CHEMBL1630814] | 756
91 | O=C(Nc1cccc(C(=O)C(=O)c2ccccn2)c1)c1ccc(F)cc1 [CHEMBL1630816] | 381
92 | O=C(Cc1ccccc1)C(=O)Cc1ccccc1 [CHEMBL1812850] | 3080
93 | O=C(C(=O)C(Br)c1ccccc1)C(Br)c1ccccc1 (stereo not drawn) [CHEMBL1812851] | 107
94 | O=C(Cc1ccccc1)C(=O)C(Br)c1ccccc1 (stereo not drawn) [CHEMBL1812852] | 2630
95 | CCCC(=O)C(=O)CCC [CHEMBL1812854] | 8060
96 | CCCCC(=O)C(=O)CCCC [CHEMBL1812855] | 46.6
97 | CCCCCC(=O)C(=O)CCCCC [CHEMBL1812856] | 3
98 | CCCCCCC(=O)C(=O)CCCCCC [CHEMBL1812857] | 4.8
99 | CCCCCCCC(=O)C(=O)CCCCCCC [CHEMBL1812858] | 7.6
100 | CCCCCCCCC(=O)C(=O)CCCCCCCC [CHEMBL1812859] | 0.84
101 | CCC(=O)C(=O)c1ccccc1 [CHEMBL1812860] | 1550
102 | CCCC(=O)C(=O)c1ccccc1 [CHEMBL1812861] | 102
103 | CCCCC(=O)C(=O)c1ccccc1 [CHEMBL1812862] | 26.1
104 | CCCCCC(=O)C(=O)c1ccccc1 [CHEMBL1812863] | 6.68
105 | CCCCCCC(=O)C(=O)c1ccccc1 [CHEMBL1812864] | 2.19
106 | O=C(O)[C@H]1O[C@@H](OC(=O)[C@H](c2ccccc2Cl)N2CCc3sccc3C2)[C@H](O)[C@@H](O)[C@@H]1O [CHEMBL3526940] | 24800
107 | O=C(Cc1ccccc1Nc1c(Cl)cccc1Cl)O[C@@H]1O[C@H](C(=O)O)[C@@H](O)[C@H](O)[C@H]1O [CHEMBL3527338] | 4320
108 | O=C1C(Cl)=C(Cl)C(=O)C(Cl)=C1Cl [CHLORANIL] | 83.9
